Among the data in patent US6274619A, “Amidino substituted tetrahydrobenzo thiophene or furan derivatives and their use as urokinase inhibitors” (Fujisawa Pharmaceutical Co., Ltd., priority 1996, dated 2001) are IC50 values, retold here.

pIC50: −log10 of the molar value. Structures can show the parent of a compound that is named as a salt.

In the experiment the target is T1, human high molecular weight urokinase (Homo sapiens, UniProt P00749).
T1 construct: purchased Fujisawa Pharmaceutical Co., Ltd
In words: Urokinase inhibiting effect (chromogenic substrate S-2288). In kind it is biochemical. Particulars: 25 IU/ml urokinase, substrate S-2288, pH 7.5, 37° C., 30 minutes, A405. The method, then:
Now in order to show the utility of the object compound (I) and pharmaceutically acceptable salts, the test datum on urokinase inhibiting effect of the representative compound of the compound (I) of this invention is shown in the following.
Test Compound was incubated at desired concentrations with 25 International Units (IU)/ml human high molecular weight urokinase (Fujisawa Pharmaceutical Co., Ltd.) and urokinase substrate (S-2288, H-D-Isoleucyl-L-prolyl-L-arginine-p-nitroaniline dihydrochloride; Chromagenix, Sweden; Japan distributors Daiichikagakuyakuhin Co., Ltd.) in a 100 μl final volume of 50 mM Tris, 100 mM NaCl, 1 mM Na2 EDTA, 0.01% (v/v) polyoxyethylenesorbitan monooleate (Tween 80), pH 7.5 (Buffer Z). Incubations were carried out at 37° C. for 30 minutes. Color was quantitated by measuring absorbance at 405 nm (A405) using EL312 Automated Microplate Reader.

Molecule `CCCC=C1CCCc2sc(C(=N)N)cc21` [Compound A, 2-Amidino-4-n-butylidene-4,5,6,7-tetrahydrobenzo[b]thiophene hydrochloride] had a negative-log IC50 (pIC50) of 6.33.

One may read the pIC50 as the negative decadic logarithm of the IC50, by convention in mol/L. A low value points to a large IC50.
